Data on five compounds can be found in publication PMC9065575, “Synthesis, computational studies, antimycobacterial and antibacterial properties of pyrazinoic acid–isoniazid hybrid conjugates” (RSC Advances, 2019).

For one data set, the system named is Enterococcus faecalis. As to the kind of experiment: Aerobic antibacterial MIC, standard dilution technique. Conditions: Enterococcus faecalis, clinical isolate; value in parentheses; read-out: Minimum inhibitory concentration (MIC) Enterococcus faecalis. The format is cell-based. The text has this: Antibacterial properties were investigated for the synthesized compounds against a variety of Gram-positive (Staphylococcus aureus, Enterococcus faecalis) and Gram-negative (Klebsiella pneumonia, Proteus vulgaris, Pseudomonas aeruginosa) clinical isolate bacteria utilizing the standard technique.[21]

Another data set deals with Mycobacterium marinum. In words: microbe, parasite or virus in culture. The format is cell-based. Conditions: clinical isolate, read-out: Minimum inhibitory concentration (MIC) M. marinum.
For another data set, the system named is Mycobacterium fortuitum. In words: microbe, parasite or virus in culture. It counts as cell-based. Conditions: Mycolicibacterium fortuitum.
A further data set concerns Mycobacterium bovis. As to the kind of experiment: microbe, parasite or virus in culture. The format is cell-based. Conditions: Mycobacterium tuberculosis variant bovis, read-out: Minimum inhibitory concentration (MIC) M. bovis.
Data set [1] relates to M. tuberculosis Erdman strain expressing luciferase. In words: microbe, parasite or virus in culture. The conditions noted are these: Mycobacterium tuberculosis, ERDMAN, 168 h; 30 μg mL^−1, pH 7.0, 7 days, vs untreated controls; read-out: Observed % growth inhibition at 30 µg/mL. The format is cell-based, Mycobacterium tuberculosis.
Data set [2] relates to RPE1 (normal human immortalized retinal epithelial) cell line. In words: Antiproliferative properties by MTT technique. It counts as cell-based. The conditions noted are these: RPE1 cells, 100 μM. As for the experimental part: Antiproliferative properties of the synthesized compounds were screened against RPE1 (normal human immortalized retinal epithelial) cell line to determine the toxicity/selectivity towards normal cell by the standard MTT technique.[23]
Antiproliferative properties of the synthesized compounds were tested against RPE1 (normal human immortalized retinal epithelial) cell line at 100 μM to determine the toxicity/selectivity towards normal cell by the standard MTT technique.[23]

Setting [3] is: clinical isolate, observed MIC, read-out: Minimum inhibitory concentration (MIC) M. fortuitum.
Where [4] appears, read: clinical isolate, read-out: Minimum inhibitory concentration (MIC) M. fortuitum.
Where [5] appears, read: M. fortuitum, observed values listed with the BMLR-QSAR model, read-out: Observed MIC (Table S6).

By melting point is commonly meant the temperature, or range, at which the solid turns liquid.

Converted amounts (≈) assume the structure as drawn. “And” between values parts separate entries of the source, which are not always exact repeats. Identical values can stand only once. Like-named read-outs stand apart in the source and are kept apart here. A value given as a limit tells only on which side of the number the result lay.

Consider `CC(C)[C@H](NC(=O)c1cnccn1)C(=O)O` [10b, (Pyrazine-2-carbonyl)-L-valine], for which the melting point was in the range of 160 to 162 °C. Moreover, the MIC in the data set with Enterococcus faecalis came to 0.13 µM (≈ 0.029 µg/mL). In addition, the MIC in the data set with Mycobacterium marinum (observed MIC) was more than 89.6 µM. In addition, the MIC with Mycobacterium marinum was more than 20 µg/mL. Further, in the data set with Mycobacterium fortuitum (setting [3]), the MIC was more than 89.6 µM. Also, the MIC with Mycobacterium fortuitum (setting [4]) was more than 20 µg/mL. In addition, in the data set on Mycobacterium bovis, the MIC was > 20 µg/mL and > 89.6 µM. In addition, the inhibition at 30 µg/mL in data set [1] was found to be 91%. In addition, the “Percentage of cell proliferation ± SD” value in data set [2] stood at 82.1 ± 3.0%.

`CC(C)[C@H](NC(=O)c1cnccn1)C(=O)NNC(=O)c1ccncc1` [12b, (S)-N-(1-(2-Isonicotinoylhydrazineyl)-3-methyl-1-oxobutan-2-yl)pyrazine-2-carboxamide] gave a melting point of 175 to 177 °C. Further, in the data set with Enterococcus faecalis, the MIC was determined as 0.33 µM (≈ 0.113 µg/mL). In addition, the MIC in the data set with Mycobacterium marinum (observed MIC) stood at 58.4 µM. Besides, the MIC in the data set with Mycobacterium marinum was found to be 20 µg/mL. Besides, the MIC in the data set with Mycobacterium fortuitum (setting [5]) was 58400 µM. In the data set with Mycobacterium fortuitum (setting [3]), the MIC came out at 58.4 µM. Besides, the MIC in the data set on Mycobacterium fortuitum (setting [4]) is 20 µg/mL. Besides, in the data set with Mycobacterium bovis, the MIC is > 20 µg/mL and > 58.4 µM. In data set [1], the inhibition at 30 µg/mL is 84.2%. The “Percentage of cell proliferation ± SD” value in data set [2] came out at 96.4 ± 2.7%.

`CC[C@H](C)[C@H](NC(=O)c1cnccn1)C(=O)NNC(=O)c1ccncc1` [12c, N-((2S,3S)-1-(2-Isonicotinoylhydrazineyl)-3-methyl-1-oxopentan-2-yl)pyrazine-2-carboxamide] yielded a melting point of 168 to 170 °C. For the same compound, in the data set on Mycobacterium marinum (observed MIC), the MIC was 56.1 µM. In addition, the MIC with Mycobacterium marinum stood at 20 µg/mL. For the same compound, the MIC in the data set on Mycobacterium fortuitum (setting [5]) was 56100 µM. The MIC with Mycobacterium fortuitum (setting [3]) is 56.1 µM. The MIC with Mycobacterium fortuitum (setting [4]) amounted to 20 µg/mL. Also, the MIC with Mycobacterium bovis was > 20 µg/mL and > 56.1 µM. Moreover, the inhibition at 30 µg/mL in data set [1] came out at 84.1%. In addition, the “Percentage of cell proliferation ± SD” value in data set [2] amounted to 84.6 ± 3.7%.

Compound `O=C(NNC(=O)[C@H](Cc1ccccc1)NC(=O)c1cnccn1)c1ccncc1` [12e, (S)-N-(1-(2-Isonicotinoylhydrazineyl)-1-oxo-3-phenylpropan-2-yl)pyrazine-2-carboxamide] registered a melting point of 177 to 179 °C. Also, in the data set with Mycobacterium marinum (observed MIC), the MIC is 51.2 µM. Also, the MIC in the data set on Mycobacterium marinum came out at 20 µg/mL. Also, the MIC in the data set with Mycobacterium fortuitum (setting [5]) came to 51200 µM. Moreover, the MIC in the data set on Mycobacterium fortuitum (setting [3]) worked out at 51.2 µM. Moreover, in the data set on Mycobacterium fortuitum (setting [4]), the MIC stood at 20 µg/mL. The MIC in the data set with Mycobacterium bovis is > 20 µg/mL and > 51.2 µM. For the same compound, in data set [1], the inhibition at 30 µg/mL was 94.8%. Moreover, the “Percentage of cell proliferation ± SD” value in data set [2] is listed as 83.2 ± 5.7%.

`O=C(NNC(=O)[C@H](Cc1c[nH]c2ccccc12)NC(=O)c1cnccn1)c1ccncc1` [12g, (S)-N-(3-(1H-Indol-3-yl)-1-(2-isonicotinoylhydrazineyl)-1-oxopropan-2-yl)pyrazine-2-carboxamide] yielded a melting point of 243 to 245 °C. Moreover, in the data set on Mycobacterium marinum (observed MIC), the MIC worked out at 46.6 µM. Moreover, the MIC in the data set with Mycobacterium marinum amounted to 20 µg/mL. The MIC with Mycobacterium fortuitum (setting [5]) came out at 46600 µM. Besides, the MIC in the data set on Mycobacterium fortuitum (setting [3]) turned out to be 46.6 µM. Besides, in the data set on Mycobacterium fortuitum (setting [4]), the MIC was 20 µg/mL. For the same compound, in the data set with Mycobacterium bovis, the MIC was > 20 µg/mL and > 46.6 µM. For the same compound, the inhibition at 30 µg/mL in data set [1] was 96%. Besides, in data set [2], the “Percentage of cell proliferation ± SD” value amounted to 92.2 ± 1.2%.
